# Data: PubChem BioAssay (NCI)
#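 Results reflect a 48-hour exposure of cells in 96-well plates to compound at five concentrations. GI50 marks 50% less growth. TGI marks complete inhibition of growth.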
# Tests used:
# Test in all cases: inhibition of tumour cell growth, NCI panel, 48 h
# UACC-257 melanoma = test system: UACC-257 melanoma
# NCI-H226 lung = test system: NCI-H226 lung
# HOP-92 NSCLC = test system: HOP-92 NSCLC
# BT-549 breast = test system: BT-549 breast
# NCI-H23 lung = test system: NCI-H23 lung
# SF-295 CNS = test system: SF-295 CNS
# K-562 leukemia = test system: K-562 leukemia
# SNB-19 CNS = test system: SNB-19 CNS
# UACC-62 melanoma = test system: UACC-62 melanoma
# M14 melanoma = test system: M14 melanoma
# UO-31 renal = test system: UO-31 renal
# SK-MEL-5 melanoma = test system: SK-MEL-5 melanoma
# KM12 colon = test system: KM12 colon
# OVCAR-3 ovarian = test system: OVCAR-3 ovarian
# HT29 colon = test system: HT29 colon
# DU-145 prostate = test system: DU-145 prostate
# NCI-H460 lung = test system: NCI-H460 lung
# OVCAR-5 ovarian = test system: OVCAR-5 ovarian
# MCF7 breast = test system: MCF7 breast
# HS 578T breast = test system: HS 578T breast
# CCRF-CEM leukemia = test system: CCRF-CEM leukemia
# NCI/ADR-RES ovarian = test system: NCI/ADR-RES ovarian
# SN12C renal = test system: SN12C renal
# SNB-75 CNS = test system: SNB-75 CNS
# SK-OV-3 ovarian = test system: SK-OV-3 ovarian
# MALME-3M melanoma = test system: MALME-3M melanoma
# CAKI-1 renal = test system: CAKI-1 renal
# TK-10 renal = test system: TK-10 renal
# RXF 393 renal = test system: RXF 393 renal
# ACHN renal = test system: ACHN renal
# SR leukemia = test system: SR leukemia
# A498 renal = test system: A498 renal
# NCI-H522 lung = test system: NCI-H522 lung
# MOLT-4 leukemia = test system: MOLT-4 leukemia
# RPMI-8226 leukemia = test system: RPMI-8226 leukemia
# SF-268 CNS = test system: SF-268 CNS
# PC-3 prostate = test system: PC-3 prostate
# U251 CNS = test system: U251 CNS
# A549 NSCLC = test system: A549 NSCLC
# HCT-15 colon = test system: HCT-15 colon
# COLO 205 colon = test system: COLO 205 colon
# HOP-62 NSCLC = test system: HOP-62 NSCLC
# MDA-MB-435 = test system: MDA-MB-435
# SW-620 colon = test system: SW-620 colon
# HL-60(TB) leukemia = test system: HL-60(TB) leukemia
# LOX IMVI melanoma = test system: LOX IMVI melanoma
# SF-539 CNS = test system: SF-539 CNS
# SK-MEL-2 melanoma = test system: SK-MEL-2 melanoma
# 786-0 renal = test system: 786-0 renal
# IGROV1 ovarian = test system: IGROV1 ovarian
# HCT-116 colon = test system: HCT-116 colon
# EKVX NSCLC = test system: EKVX NSCLC
# OVCAR-8 ovarian = test system: OVCAR-8 ovarian
# OVCAR-4 ovarian = test system: OVCAR-4 ovarian
# T-47D breast = test system: T-47D breast
# MDA-MB-231 breast = test system: MDA-MB-231 breast
# SK-MEL-28 melanoma = test system: SK-MEL-28 melanoma
compound,measurement,setting,value
CO/N=C1\CC(C)N2C(=O)C(C(C)C)NC(=O)C(NC(=O)c3c4nc5c(C(=O)NC6C(=O)NC(C(C)C)C(=O)N7C(C)CC(O)C7C(=O)N(C)CC(=O)N(C)C(C(C)C)C(=O)OC6C)ccc(C)c5oc-4c(C)c(=O)c3N)C(CO)OC(=O)C(C)N(C)C(=O)CN(C)C(=O)C12 (stereo unspecified),TGI,UACC-257 melanoma,4.31 µM
same,TGI,NCI-H226 lung,3.81 µM
same,TGI,HOP-92 NSCLC,16.9 µM
same,TGI,BT-549 breast,17 µM
same,TGI,NCI-H23 lung,14.5 µM
COc1cc(/C=C2\N=C(c3ccccc3)N(c3ccc(S(=O)(=O)Nc4nccs4)cc3)C2=O)ccc1O,TGI,SF-295 CNS,> 100 µM
same,TGI,K-562 leukemia,> 100 µM
same,TGI,SNB-19 CNS,> 100 µM
same,TGI,UACC-62 melanoma,> 100 µM
same,TGI,M14 melanoma,> 100 µM
same,TGI,UO-31 renal,> 100 µM
same,TGI,SK-MEL-5 melanoma,> 100 µM
same,TGI,KM12 colon,> 100 µM
same,TGI,OVCAR-3 ovarian,> 100 µM
same,TGI,HT29 colon,> 100 µM
same,TGI,DU-145 prostate,> 100 µM
same,TGI,NCI-H460 lung,> 100 µM
same,TGI,OVCAR-5 ovarian,> 100 µM
same,TGI,MCF7 breast,> 100 µM
same,TGI,HS 578T breast,> 100 µM
same,TGI,CCRF-CEM leukemia,> 100 µM
same,TGI,NCI/ADR-RES ovarian,> 100 µM
same,TGI,SN12C renal,> 100 µM
same,TGI,SNB-75 CNS,> 100 µM
same,TGI,SK-OV-3 ovarian,> 100 µM
same,TGI,MALME-3M melanoma,> 100 µM
same,TGI,CAKI-1 renal,> 100 µM
same,TGI,TK-10 renal,> 100 µM
same,TGI,RXF 393 renal,> 100 µM
same,TGI,ACHN renal,> 100 µM
same,TGI,SR leukemia,> 100 µM
same,TGI,A498 renal,> 100 µM
same,TGI,NCI-H522 lung,> 100 µM
same,TGI,MOLT-4 leukemia,> 100 µM
same,TGI,RPMI-8226 leukemia,> 100 µM
same,TGI,SF-268 CNS,> 100 µM
same,TGI,PC-3 prostate,> 100 µM
same,TGI,U251 CNS,> 100 µM
same,TGI,A549 NSCLC,> 100 µM
same,TGI,HCT-15 colon,> 100 µM
same,TGI,COLO 205 colon,> 100 µM
same,TGI,UACC-257 melanoma,> 100 µM
same,TGI,HOP-62 NSCLC,> 100 µM
same,TGI,MDA-MB-435,> 100 µM
same,TGI,SW-620 colon,> 100 µM
same,TGI,HL-60(TB) leukemia,> 100 µM
same,TGI,LOX IMVI melanoma,> 100 µM
same,TGI,SF-539 CNS,> 100 µM
same,TGI,SK-MEL-2 melanoma,> 100 µM
same,TGI,NCI-H226 lung,> 100 µM
same,TGI,786-0 renal,> 100 µM
same,TGI,IGROV1 ovarian,> 100 µM
same,TGI,HCT-116 colon,> 100 µM
same,TGI,EKVX NSCLC,> 100 µM
same,TGI,OVCAR-8 ovarian,> 100 µM
same,TGI,HOP-92 NSCLC,> 100 µM
same,TGI,OVCAR-4 ovarian,> 100 µM
same,TGI,T-47D breast,> 100 µM
same,TGI,BT-549 breast,> 100 µM
same,TGI,NCI-H23 lung,> 100 µM
CCN(CC)c1ccc2[nH]c3c(C(N)=O)cc(=O)c(=O)c=3oc2c1,GI50,SF-295 CNS,1.57 µM
same,TGI,SF-295 CNS,6.35 µM
same,GI50,K-562 leukemia,1.93 µM
same,TGI,K-562 leukemia,> 100 µM
same,GI50,SNB-19 CNS,2.68 µM
same,TGI,SNB-19 CNS,24.5 µM
same,GI50,UACC-62 melanoma,1.59 µM
same,TGI,UACC-62 melanoma,4.75 µM
same,GI50,M14 melanoma,1.61 µM
same,TGI,M14 melanoma,4.17 µM
same,GI50,UO-31 renal,1.07 µM
same,TGI,UO-31 renal,4.12 µM
same,GI50,SK-MEL-5 melanoma,1.22 µM
same,TGI,SK-MEL-5 melanoma,2.49 µM
same,GI50,KM12 colon,2.94 µM
same,TGI,KM12 colon,11.3 µM
same,GI50,OVCAR-3 ovarian,0.68 µM
same,TGI,OVCAR-3 ovarian,4.3 µM
same,GI50,HT29 colon,2.97 µM
same,TGI,HT29 colon,12.9 µM
same,GI50,DU-145 prostate,1.87 µM
same,TGI,DU-145 prostate,7.39 µM
same,GI50,NCI-H460 lung,1.34 µM
same,TGI,NCI-H460 lung,12.6 µM
same,GI50,OVCAR-5 ovarian,3.66 µM
same,TGI,OVCAR-5 ovarian,33.4 µM
same,GI50,MDA-MB-231 breast,2.9 µM
same,TGI,MDA-MB-231 breast,> 100 µM
same,GI50,MCF7 breast,1.68 µM
same,TGI,MCF7 breast,> 100 µM
same,GI50,HS 578T breast,0.663 µM
same,TGI,HS 578T breast,> 100 µM
same,GI50,CCRF-CEM leukemia,1.9 µM
same,TGI,CCRF-CEM leukemia,8.19 µM
same,GI50,NCI/ADR-RES ovarian,1.72 µM
same,TGI,NCI/ADR-RES ovarian,11.8 µM
same,GI50,SN12C renal,2.09 µM
same,TGI,SN12C renal,> 100 µM
same,GI50,SNB-75 CNS,2.04 µM
same,TGI,SNB-75 CNS,8.59 µM
same,GI50,MALME-3M melanoma,1.16 µM
same,TGI,MALME-3M melanoma,2.96 µM
same,GI50,CAKI-1 renal,1.09 µM
same,TGI,CAKI-1 renal,3.44 µM
same,GI50,RXF 393 renal,1.37 µM
same,TGI,RXF 393 renal,6.39 µM
same,GI50,ACHN renal,1.84 µM
same,TGI,ACHN renal,> 100 µM
same,GI50,SR leukemia,2.84 µM
same,TGI,SR leukemia,8.74 µM
same,GI50,A498 renal,1.92 µM
same,TGI,A498 renal,9.28 µM
same,GI50,SK-MEL-28 melanoma,3.76 µM
same,TGI,SK-MEL-28 melanoma,17.2 µM
same,GI50,RPMI-8226 leukemia,0.383 µM
same,TGI,RPMI-8226 leukemia,4.7 µM
same,GI50,SF-268 CNS,1.98 µM
same,TGI,SF-268 CNS,15.1 µM
same,GI50,PC-3 prostate,2.52 µM
same,TGI,PC-3 prostate,> 100 µM
same,GI50,U251 CNS,0.912 µM
same,TGI,U251 CNS,5.75 µM
same,GI50,A549 NSCLC,1.75 µM
same,TGI,A549 NSCLC,5.12 µM
same,GI50,HCT-15 colon,1.51 µM
same,TGI,HCT-15 colon,> 100 µM
same,GI50,COLO 205 colon,3.09 µM
same,TGI,COLO 205 colon,11.3 µM
same,GI50,UACC-257 melanoma,0.683 µM
same,TGI,UACC-257 melanoma,3.25 µM
same,GI50,HOP-62 NSCLC,0.445 µM
same,TGI,HOP-62 NSCLC,15.4 µM
same,GI50,MDA-MB-435,0.377 µM
same,TGI,MDA-MB-435,9.78 µM
same,GI50,SW-620 colon,2.36 µM
same,TGI,SW-620 colon,> 100 µM
same,GI50,HL-60(TB) leukemia,1.66 µM
same,TGI,HL-60(TB) leukemia,5.08 µM
same,GI50,LOX IMVI melanoma,0.581 µM
same,TGI,LOX IMVI melanoma,6.3 µM
same,GI50,SF-539 CNS,0.597 µM
same,TGI,SF-539 CNS,14.1 µM
same,GI50,SK-MEL-2 melanoma,1.65 µM
same,TGI,SK-MEL-2 melanoma,6.1 µM
same,GI50,NCI-H226 lung,2.49 µM
same,TGI,NCI-H226 lung,7.54 µM
same,GI50,786-0 renal,2.42 µM
same,TGI,786-0 renal,> 100 µM
same,GI50,IGROV1 ovarian,0.31 µM
same,TGI,IGROV1 ovarian,1.24 µM
same,GI50,HCT-116 colon,0.281 µM
same,TGI,HCT-116 colon,1.04 µM
same,GI50,EKVX NSCLC,2.79 µM
same,TGI,EKVX NSCLC,15.7 µM
same,GI50,OVCAR-8 ovarian,2.05 µM
same,TGI,OVCAR-8 ovarian,> 100 µM
same,GI50,HOP-92 NSCLC,2.82 µM
same,TGI,HOP-92 NSCLC,7.83 µM
same,GI50,OVCAR-4 ovarian,2.03 µM
same,TGI,OVCAR-4 ovarian,11.5 µM
same,GI50,T-47D breast,2.58 µM
same,TGI,T-47D breast,> 100 µM
same,GI50,BT-549 breast,1.7 µM
same,TGI,BT-549 breast,5.17 µM
same,GI50,NCI-H23 lung,1.4 µM
same,TGI,NCI-H23 lung,5.17 µM
